The results in this text go back to patent US11780839B2, “Compounds for treating Huntington's disease” (PTC THERAPEUTICS, INC., priority 2018, dated 2023).

The structures appear in SMILES notation.

The subject of the test is Endogenous Huntingtin Protein. The experiment in a line: Endogenous Huntingtin Protein Assay (ELISA-based Meso Scale Discovery electrochemiluminescence). The class given is cell-based. The conditions noted are these: MSD electrochemiluminescence, Table 1. The method, boiled down: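 Sandwich MSD electrochemiluminescence immunoassay. Capture used MW1 (expanded polyglutamine) or MAB2166 antibody coated at 1 μg/mL overnight at 4 °C. Samples were bound overnight at 4 °C, then a rabbit monoclonal detection antibody and SULFO-TAG anti-rabbit, each at 0.25 μg/mL, were applied for 1 h at room temperature.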
`Cc1ncn(-c2ccc(-c3cnc(N(C)C4CC(C)(C)NC(C)(C)C4)nn3)c(O)c2)n1` [Cpd 51, 2-{3-[methyl(2,2,6,6-tetramethylpiperidin-4-yl)amino]-1,2,4-triazin-6-yl}-5-(3-methyl-1H-1,2,4-triazol-1-yl)phenol] registered an IC50 greater than 0.5 µM.

On to `CN(c1ncc(-c2ccc(-c3ccc4ncn(C)c4n3)cc2O)nn1)C1CC(C)(C)NC(C)(C)C1` [Cpd 163, 5-(3-methyl-3H-imidazo[4,5-b]pyridin-5-yl)-2-{3-[methyl(2,2,6,6-tetramethylpiperidin-4-yl)amino]-1,2,4-triazin-6-yl}phenol], for which the IC50 was in the range of 1 to 3 µM. Under `CN(c1ncc(-c2ccc(-c3cc4cnn(C)c4cn3)cc2O)nn1)C1CC(C)(C)NC(C)(C)C1` [Cpd 222, 5-(1-methyl-1H-pyrazolo[3,4-c]pyridin-5-yl)-2-{3-[methyl(2,2,6,6-tetramethylpiperidin-4-yl)amino]-1,2,4-triazin-6-yl}phenol] stands no more than 0.1 µM. In turn, `CN(c1ncc(-c2ccc(-n3ccnc3)cc2O)nn1)C1CC(C)(C)NC(C)(C)C1` [Cpd 89, 5-(1H-imidazol-1-yl)-2-{3-[methyl(2,2,6,6-tetramethylpiperidin-4-yl)amino]-1,2,4-triazin-6-yl}phenol] registered an IC50 of no more than 0.1 µM. `COc1cc(-c2cn[nH]c2)cc(O)c1-c1cnc(N2CCC(NC(C)(C)C)C2)nn1` (stereo not shown) [Cpd 376, 2-{3-[3-(tert-butylamino)pyrrolidin-1-yl]-1,2,4-triazin-6-yl}-3-methoxy-5-(1H-pyrazol-4-yl)phenol] displayed an IC50 of no more than 0.1 µM. Under `Oc1cc(-c2cn[nH]c2)ccc1-c1cnc(N2CC3CCNC3C2)nn1` (stereo not shown) [Cpd 370, 2-[3-(hexahydropyrrolo[3,4-b]pyrrol-5(1H)-yl)-1,2,4-triazin-6-yl]-5-(1H-pyrazol-4-yl)phenol] stands no more than 0.1 µM; under `CN(c1ncc(-c2ccc(-n3cccn3)cc2O)nn1)C1CC(C)(C)NC(C)(C)C1` [Cpd 17, 2-{3-[methyl(2,2,6,6-tetramethylpiperidin-4-yl)amino]-1,2,4-triazin-6-yl}-5-(1H-pyrazol-1-yl)phenol], 0.1 to 0.5 µM; under `CN(c1cnc(-c2ccc(-c3cn[nH]c3)cc2O)nn1)C1CC(C)(C)NC(C)(C)C1` [Cpd 24, 2-{6-[methyl(2,2,6,6-tetramethylpiperidin-4-yl)amino]-1,2,4-triazin-3-yl}-5-(1H-pyrazol-4-yl)phenol], 0.1 to 0.5 µM.

For the compound `CN(c1ncc(-c2ccc(-c3cn[nH]c3)cc2O)nn1)C1C[C@H]2CC[C@@H](C1)N2` (stereo partly drawn) [Cpd 21, 2-(3-{[(1R,3S,5S)-8-azabicyclo[3.2.1]octan-3-yl](methyl)amino}-1,2,4-triazin-6-yl)-5-(1H-pyrazol-4-yl)phenol], the half-inhibitory concentration (IC50) was no more than 0.1 µM. Under `CC1(C)CC(Nc2ncc(-c3ccc(-c4cn[nH]c4)cc3O)nn2)CC(C)(C)N1` [Cpd 13, 5-(1H-pyrazol-4-yl)-2-{3-[(2,2,6,6-tetramethylpiperidin-4-yl)amino]-1,2,4-triazin-6-yl}phenol] stands no more than 0.1 µM. To `CN(c1cnc(-c2ccc(-c3cnccn3)cc2O)nn1)C1CC(C)(C)NC(C)(C)C1` [Cpd 412, 2-{6-[methyl(2,2,6,6-tetramethylpiperidin-4-yl)amino]-1,2,4-triazin-3-yl}-5-(pyrazin-2-yl)phenol] belongs no more than 0.1 µM; to `CN(c1ncc(-c2ccc(-c3cn[nH]c3)cc2O)nn1)C1CC(C)(C)NC(C)(C)C1F` (stereo not shown) [Cpd 67, 2-{3-[(3-fluoro-2,2,6,6-tetramethylpiperidin-4-yl)(methyl)amino]-1,2,4-triazin-6-yl}-5-(1H-pyrazol-4-yl)phenol], 0.1 to 0.5 µM; to `CC1(C)CC(Nc2ncc(-c3ccc(-c4cn[nH]c4)cc3O)nn2)C(F)C(C)(C)N1` (stereo not shown) [Cpd 126, 2-{3-[(3-fluoro-2,2,6,6-tetramethylpiperidin-4-yl)amino]-1,2,4-triazin-6-yl}-5-(1H-pyrazol-4-yl)phenol], no more than 0.1 µM. To `CC1(C)CC(Nc2cnc(-c3ccc(-c4cn[nH]c4)cc3O)nn2)CC(C)(C)N1` [Cpd 396, 5-(1H-pyrazol-4-yl)-2-{6-[(2,2,6,6-tetramethylpiperidin-4-yl)amino]-1,2,4-triazin-3-yl}phenol] belongs no more than 0.1 µM; to `CN(c1ncc(-c2ccc(-c3cnco3)cc2O)nn1)C1CC(C)(C)NC(C)(C)C1` [Cpd 91, 2-{3-[methyl(2,2,6,6-tetramethylpiperidin-4-yl)amino]-1,2,4-triazin-6-yl}-5-(1,3-oxazol-5-yl)phenol], no more than 0.1 µM; to `CC(C)NCC1CCN(c2ncc(-c3ccc(-c4cn[nH]c4)cc3O)nn2)C1` (stereo not drawn) [Cpd 361, 2-[3-(3-{[(propan-2-yl)amino]methyl}pyrrolidin-l-yl)-1,2,4-triazin-6-yl]-5-(1H-pyrazol-4-yl)phenol], no more than 0.1 µM.

Regarding `CN1CCC2(CC1)CN(c1ncc(-c3ccc(-c4cnn(C)c4)cc3O)nn1)C2` [Cpd 226, 2-[3-(7-methyl-2,7-diazaspiro[3.5]nonan-2-yl)-1,2,4-triazin-6-yl]-5-(1-methyl-1H-pyrazol-4-yl)phenol], the concentration for half-maximal inhibition (IC50) was no more than 0.1 µM.

`CN(c1ncc(-c2ccc(-c3cccs3)cc2O)nn1)C1CC(C)(C)NC(C)(C)C1` [Cpd 53, 2-{3-[methyl(2,2,6,6-tetramethylpiperidin-4-yl)amino]-1,2,4-triazin-6-yl}-5-(thiophen-2-yl)phenol] yielded an IC50 of 0.1 to 0.5 µM. To `Cn1nnc(-c2ccc(-c3cnc(N4CCC(NC(C)(C)C)C4)nn3)c(O)c2)n1` (stereo not shown) [Cpd 211, 2-{3-[3-(tert-butylamino)pyrrolidin-1-yl]-1,2,4-triazin-6-yl}-5-(2-methyl-2H-tetrazol-5-yl)phenol] belongs no more than 0.1 µM. On to `CCC(C)(CC)NC1CCN(c2ncc(-c3ccc(-c4cn[nH]c4)cc3O)nn2)C1` (stereo not shown) [Cpd 170, 2-(3-{3-[(3-methylpentan-3-yl)amino]pyrrolidin-1-yl}-1,2,4-triazin-6-yl)-5-(1H-pyrazol-4-yl)phenol], for which the half-inhibitory concentration (IC50) is no more than 0.1 µM.

With `CN(c1ncc(-c2ccc(-c3nnn(C)n3)cc2O)nn1)C1CC(C)(C)NC(C)(C)C1` [Cpd 143, 2-{3-[methyl(2,2,6,6-tetramethylpiperidin-4-yl)amino]-1,2,4-triazin-6-yl}-5-(2-methyl-2H-tetrazol-5-yl)phenol], the concentration for half-maximal inhibition (IC50) was no more than 0.1 µM.

For the compound `CN(c1ncc(-c2ccc(-c3cn[nH]c3)cc2O)nn1)C1C[C@H]2CCC[C@@H](C1)N2` (stereo partly drawn) [Cpd 22, 2-(3-{[(1R,3S,5S)-9-azabicyclo[3.3.1]nonan-3-yl](methyl)amino}-1,2,4-triazin-6-yl)-5-(1H-pyrazol-4-yl)phenol], the IC50 was no more than 0.1 µM. To `CC1(C)C[C@@H](Nc2ncc(-c3ccc(-c4c[nH]nc4F)cc3O)nn2)[C@@H](F)C(C)(C)N1` [Cpd 189, 5-(3-fluoro-1H-pyrazol-4-yl)-2-(3-{[(3R,4R)-3-fluoro-2,2,6,6-tetramethylpiperidin-4-yl]amino}-1,2,4-triazin-6-yl)phenol] belongs no more than 0.1 µM. Under `Oc1cc(-c2cn[nH]c2)ccc1-c1cnc(N2CCC(CNC3CC4CCC(C3)O4)C2)nn1` (stereo not shown) [Cpd 405, 2-[3-(3-{[(8-oxabicyclo[3.2.1]octan-3-yl)amino]methyl}pyrrolidin-1-yl)-1,2,4-triazin-6-yl]-5-(1H-pyrazol-4-yl)phenol] stands no more than 0.1 µM; under `CN(c1cnc(-c2ccc(-c3cnn(C)c3)cc2O)nn1)C1CC(C)(C)NC(C)(C)C1` [Cpd 196, 5-(1-methyl-1H-pyrazol-4-yl)-2-{6-[methyl(2,2,6,6-tetramethylpiperidin-4-yl)amino]-1,2,4-triazin-3-yl}phenol], no more than 0.1 µM; under `CC1(C)C[C@H](Nc2ncc(-c3ccc(-n4cnc(F)c4)cc3O)nn2)[C@H](F)C(C)(C)N1` [Cpd 240, 5-(4-fluoro-1H-imidazol-1-yl)-2-(3-{[(3S,4S)-3-fluoro-2,2,6,6-tetramethylpiperidin-4-yl]amino}-1,2,4-triazin-6-yl)phenol], no more than 0.1 µM. Under `Oc1cc(-c2cn[nH]c2)ccc1-c1cnc(N2CCC(NC3C4CC5CC(C4)CC3C5)C2)nn1` (stereo not shown) [Cpd 159, 2-(3-{3-[(adamantan-2-yl)amino]pyrrolidin-1-yl}-1,2,4-triazin-6-yl)-5-(1H-pyrazol-4-yl)phenol] stands 1 to 3 µM.

Take `CN(c1ncc(-c2ccc(-c3ccc4nccn4n3)cc2O)nn1)C1CC(C)(C)NC(C)(C)C1` [Cpd 92, 5-(imidazo[1,2-b]pyridazin-6-yl)-2-{3-[methyl(2,2,6,6-tetramethylpiperidin-4-yl)amino]-1,2,4-triazin-6-yl}phenol]: the IC50 was no more than 0.1 µM. Under `Cc1ncc(-c2ccc(-c3cnc(N4CC5(CCN(C)CC5)C4)nn3)c(O)c2)o1` [Cpd 299, 2-[3-(7-methyl-2,7-diazaspiro[3.5]nonan-2-yl)-1,2,4-triazin-6-yl]-5-(2-methyl-1,3-oxazol-5-yl)phenol] stands no more than 0.1 µM; under `CN(c1ncc(-c2ccc(-c3cnn(C)c3)cc2O)nn1)[C@H]1C[C@]2(C)CC[C@](C)(C1)N2` [Cpd 408], no more than 0.1 µM. To `[2H]C([2H])([2H])n1cc(-c2ccc(-c3ncc(NC4CC(C)(C)NC(C)(C)C4)nn3)c(O)c2)cn1` [Cpd 424, 5-[1-(^2H3)methyl-1H-pyrazol-4-yl]-2-{6-[(2,2,6,6-tetramethylpiperidin-4-yl)amino]-1,2,4-triazin-3-yl}phenol] belongs no more than 0.1 µM.

The compound `CC(C)(C)NC1CCN(c2ncc(-c3ccc(-c4cn[nH]c4)cc3O)nn2)C1` (stereo not shown) [Cpd 138, 2-{3-[3-(tert-butylamino)pyrrolidin-1-yl]-1,2,4-triazin-6-yl}-5-(1H-pyrazol-4-yl)phenol] displayed an IC50 of no more than 0.1 µM. To `CC1(C)CC(Nc2ncc(-c3ccc(-n4ccnc4)cc3O)nn2)CC(C)(C)N1` [Cpd 273, 5-(1H-imidazol-1-yl)-2-{3-[(2,2,6,6-tetramethylpiperidin-4-yl)amino]-1,2,4-triazin-6-yl}phenol] belongs no more than 0.1 µM. To `CN(c1cnc(-c2ccc(-c3ccc4c(cnn4C)c3)cc2O)nn1)C1CC(C)(C)NC(C)(C)C1` [Cpd 342, 5-(1-methyl-1H-indazol-5-yl)-2-{6-[methyl(2,2,6,6-tetramethylpiperidin-4-yl)amino]-1,2,4-triazin-3-yl}phenol] belongs 0.1 to 0.5 µM.
